{"source": "patent US20230097603A1", "about": "“NICOTINAMIDE MONONUCLEOTIDE DERIVATIVES FOR THE TREATMENT OF ARRHYTHMIA” (NUVAMID SA, priority 2020, published 2023)", "key": {"[1]": {"test_system": "ischaemia-reperfusion rat", "test": "Arrhythmia induced by ischaemia-reperfusion in anaesthetised rats", "format": "in vivo", "settings": "for ventricular fibrillation during the ischaemia (effect in words) / ventricular tachycardia during the ischaemia (effect in words) / incidence of ventricular tachycardia during reperfusion (effect in words) / duration of ventricular tachycardia during reperfusion (effect in words) / ventricular fibrillation during reperfusion (effect in words) / mortality during the reperfusion period (effect in words): iv; for ventricular fibrillation during the ischaemia (effect in words) / ventricular tachycardia during the ischaemia (effect in words): I-C 185 mg/kg 30 min before, cariporide 0.3 mg/kg 5 min before ischaemia; for incidence of ventricular tachycardia during reperfusion (effect in words) / duration of ventricular tachycardia during reperfusion (effect in words) / ventricular fibrillation during reperfusion (effect in words) / mortality during the reperfusion period (effect in words): I-C 185 mg/kg, cariporide 0.3 mg/kg; for duration of ventricular tachycardia during reperfusion (effect in words) / ventricular fibrillation during reperfusion (effect in words): vs carrier; for mortality during the reperfusion period (effect in words): carrier group 25% death", "method": "Arrhythmias were obtained in an acute model of ischaemia-reperfusion in rats.\nThe rats were first anaesthetised, then intubated and mechanically ventilated, before being prepared for surgery.\nCatheters were then placed in the carotid artery in order to measure the arterial pressure and in the caudal vein for the perfusion of drugs. The arterial catheter consists in a catheter filled with fluid which sends the pressure to a transducer located nearby. The mean arterial pressure is calculated electronically and recorded continuously.\nA three-lead electrocardiogram (ECG) was recorded throughout the procedure by means of needle electrodes attached to the limbs.\nThe modifications to the ECG, mean arterial pressure (MAP) and the heart rate were measured before and during the occlusion-reperfusion period. The definitions of the arrhythmias are based on those described in the Lambeth conventions (Walker and al., The Lambeth conventions: guidelines for the study of arrhythmias in ischaemia infarction, and reperfusion, Cardiovascular Research, 1988, 22(7), 447-455). The ectopic activity has been categorized as a single ventricular premature beat (VPB), a ventricular tachycardia (VT, four or more consecutive VPBs) or a ventricular fibrillation (VF, inability to distinguish individual QRS complexes and to measure the rate). The arterial pressure traces were referred to in order to confirm which type of ectopic activity was produced, in particular to distinguish between polymorphic VT and VF. When the first is produced, the arterial pressure is generally still pulsatile whereas with VF, the arterial pressure falls rapidly towards zero and is no longer pulsatile. The VF can be sustained or can spontaneously return to a normal sinusoidal rhythm in rats. In all the experiments, the incidences of TV and VF as well as the duration of the ventricular tachycardia were noted.\nThe heart was then exposed by a left intercostal thoracotomy. After opening the pericardium, a 6.0 silk stitch was placed around the left coronary artery on a polypropylene tube in order to form a collar. The hearts were subjected to an ischaemia for 7 minutes by tightening the suture 5 minutes after the treatment. Finally, the collar occluder was released in order to allow the reperfusion of the myocardial tissue for 10 minutes. At the end of the reperfusion period, the rats were euthanised by cervical dislocation while still anaesthetised.\nThe means± the standard error on the mean are presented.\nThe statistical analysis was carried out using the GraphPad Prism 5 software. The Fisher test was used to analyse the differences between the incidences of arrhythmias, while the chi-squared test was used to compare the incidence of mortality. The Kruskall-Wallis test was used to analyse the differences between the duration of the tachycardia and the ventricular fibrillations and the difference in the number of ventricular fibrillations.\nThe rats were treated by the intravenous route with a saline solution, a compound of formula I-C at 185 mg/kg (30 minutes before the ischaemia) or cariporide at 0.3 mg/kg (5 minutes before the ischaemia). The animals were subjected to a 7-minute ischaemia and a 10-minute reperfusion. Throughout the experimental phase, the arterial pressure and ECG profiles were recorded continuously. Blood was sampled 5 minutes after the end of the reperfusion and the heart was weighed."}, "[2]": {"test_system": "arrhythmias induced by doxorubicin", "test": "Arrhythmia induced by doxorubicin in mice, heart rate by ECG", "format": "in vivo", "settings": "for heart rate 5 days after the injection of DOX (effect in words): vs DOX + carrier", "method": "The goal of this study was to evaluate the effects of an i.p. administration of compounds I-C, I-J and I-K, at 180 mg/kg, on arrhythmias induced by doxorubicin. 76 male mice, 8 weeks old on arrival, were obtained from Janvier Labs, Le Genest St Isle, 53941 St Berthevin, France. Each animal was identified with an electronic chip. The powder of compounds I-C, I-J and I-K (180 mg/kg) was dissolved in the carrier (the solution was used at ambient temperature for a maximum of 1 day). […] Doxorubicin was prepared at 2 mg/mL and the administration volume was 10 mL/kg. The control group received an injection of saline solution. Each group comprises 14 to 24 mice. As indicated in the regulations relating to non-clinical laboratory studies, the groups of test and control animals have been kept under identical conditions. The envisaged duration of the study was 11 days. […] The treatment with compounds I-C, I-J and I-K was initiated after 5 days before the injection of DOX, once per day from Day 5 to Day 0. The mice were treated i.p with compounds I-C, I-J and I-K 30 minutes before the injection of DOX. The mice were treated i.p with compounds I-C, I-J and I-K during the duration of the experiment (J0 to J5) once per day. […] In particular, the heart rate was evaluated during the ECG: […]"}, "infarction": {"test_system": "infarction", "settings": "ischaemia of at least 30 minutes and reperfusion of at least 60 minutes; cited from earlier work"}, "[3]": {"settings": "185 mg/kg iv 30 minutes before ischaemia, 7-minute ischaemia"}, "[4]": {"settings": "185 mg/kg iv, 10-minute reperfusion"}, "[5]": {"settings": "DOX 20 mg/kg i.p. + compound 180 mg/kg i.p. once per day"}}, "note": "“Also recorded” adds a separate entry of the source."}
{"smiles": "CC(C)c1ccc(C(=O)NC(=N)N)cc1S(C)(=O)=O", "note": "[Cariporide, reference compound]", "values": [{"measurement": "ventricular fibrillation during the ischaemia (effect in words)", "setting": "[1]", "value": "removed"}, {"measurement": "ventricular tachycardia during the ischaemia (effect in words)", "setting": "[1]", "value": "removed"}, {"measurement": "incidence of ventricular tachycardia during reperfusion (effect in words)", "setting": "[1]; 10-minute reperfusion", "value": "no beneficial effect"}, {"measurement": "duration of ventricular tachycardia during reperfusion (effect in words)", "setting": "[1]; 10-minute reperfusion", "value": "tendency to be shorter"}, {"measurement": "ventricular fibrillation during reperfusion (effect in words)", "setting": "[1]; 10-minute reperfusion", "value": "removed"}, {"measurement": "mortality during the reperfusion period (effect in words)", "setting": "[1]", "value": "removed"}]}
{"smiles": "NC(=O)c1ccc[n+]([C@@H]2O[C@H](COP(=O)([O-])O)[C@@H](O)[C@H]2O)c1", "note": "[I-C]", "values": [{"measurement": "duration of ventricular tachycardia during the ischaemia", "setting": "[1]; [3]", "value": "0.2 ± 0.2", "unit": "s"}, {"measurement": "incidence of ventricular tachycardia during the ischaemia", "setting": "[1]; [3]", "value": "approximately 9%"}, {"measurement": "duration of ventricular fibrillation during reperfusion", "setting": "[1]; [4]", "value": "4.0±2.3 % of the duration of the reperfusion"}, {"measurement": "incidence of ventricular fibrillation during reperfusion", "setting": "[1]; [4]", "value": "approximately 55%"}, {"measurement": "number of ventricular fibrillations during reperfusion", "setting": "[1]; [4]", "value": "approximately one"}, {"measurement": "ventricular fibrillation during the ischaemia (effect in words)", "setting": "[1]", "value": "remove the ventricular fibrillation"}, {"measurement": "ventricular tachycardia during the ischaemia (effect in words)", "setting": "[1]", "value": "significantly reduce the incidence and duration"}, {"measurement": "incidence of ventricular tachycardia during reperfusion (effect in words)", "setting": "[1]; 10-minute reperfusion", "value": "no effect"}, {"measurement": "duration of ventricular tachycardia during reperfusion (effect in words)", "setting": "[1]; 10-minute reperfusion", "value": "appeared to reduce the duration"}, {"measurement": "ventricular fibrillation during reperfusion (effect in words)", "setting": "[1]; 10-minute reperfusion", "value": "tendency to reduce the incidence"}, {"measurement": "mortality during the reperfusion period (effect in words)", "setting": "[1]", "value": "removed mortality"}, {"measurement": "heart rate 5 days after the injection of DOX (effect in words)", "setting": "[2]; [5]", "value": "increase in heart rates; also recorded: significantly attenuated"}]}
{"smiles": "NC(=O)c1ccc[n+]([C@@H]2O[C@H](COP(=O)([O-])OP(=O)([O-])OC[C@H]3O[C@H]([n+]4cccc(C(N)=O)c4)[C@H](O)[C@@H]3O)[C@@H](O)[C@H]2O)c1", "note": "[I-J]", "values": [{"measurement": "heart rate 5 days after the injection of DOX", "setting": "[2]; [5]", "value": "470.1±18.8", "unit": "bpm"}, {"measurement": "heart rate 5 days after the injection of DOX (effect in words)", "setting": "[2]; [5]", "value": "increase in heart rates; also recorded: significantly attenuated"}]}
{"smiles": "NC(=O)c1ccc[n+]([C@H]2O[C@H](COP(=O)([O-])OP(=O)([O-])OC[C@H]3O[C@H]([n+]4cccc(C(N)=O)c4)[C@H](O)[C@@H]3O)[C@@H](O)[C@H]2O)c1", "note": "[I-K]", "values": [{"measurement": "heart rate 5 days after the injection of DOX (effect in words)", "setting": "[2]; [5]", "value": "increase in heart rates; also recorded: significantly attenuated"}]}
{"smiles": "NC(=O)c1ccc[n+]([C@@H]2O[C@H](COP(=O)([O-])O)[C@@H](O)[C@H]2O)c1", "note": "[NMN, Nicotinamide Mononucleotide]", "values": [{"measurement": "protective effect against infarction", "setting": "infarction", "value": "protects the heart"}]}
{"smiles": "COc1cccc2c1C(=O)c1c(O)c3c(c(O)c1C2=O)C[C@@](O)(C(=O)CO)C[C@@H]3O[C@H]1C[C@H](N)[C@H](O)[C@H](C)O1", "note": "[doxorubicin, reference compound]", "values": [{"measurement": "heart rate 5 days after the injection of DOX", "setting": "[2]; DOX 20 mg/kg i.p. + carrier, control mice 525.6±19.8 bpm", "value": "365.1±23.9", "unit": "bpm"}]}
